What all share (test): whole-cell patch clamp, HEK-293T
Format in all cases: cell-based

Experiment [1] concerns the target T1, TASK-3 (hTASK-3) (Homo sapiens, UniProt Q9NPC2).
Experiment [2] concerns the target T1, TASK-3 (hTASK-3). The conditions noted are these: dose-response.
Experiment [3] deals with T2, TASK-3/TASK-1 (hTASK-3/hTASK-1) (Homo sapiens, UniProt O14649+Q9NPC2).
Experiment [4] concerns the target T2, TASK-3/TASK-1 (hTASK-3/hTASK-1). The conditions noted are these: read-out: % inhibition at 0.5 μM.
For experiment [5], the target named is T1, TASK-3 (hTASK-3). The following applies: read-out: % inhibition at 0.5 μM.

T1 sequence (Q9NPC2 whole entry): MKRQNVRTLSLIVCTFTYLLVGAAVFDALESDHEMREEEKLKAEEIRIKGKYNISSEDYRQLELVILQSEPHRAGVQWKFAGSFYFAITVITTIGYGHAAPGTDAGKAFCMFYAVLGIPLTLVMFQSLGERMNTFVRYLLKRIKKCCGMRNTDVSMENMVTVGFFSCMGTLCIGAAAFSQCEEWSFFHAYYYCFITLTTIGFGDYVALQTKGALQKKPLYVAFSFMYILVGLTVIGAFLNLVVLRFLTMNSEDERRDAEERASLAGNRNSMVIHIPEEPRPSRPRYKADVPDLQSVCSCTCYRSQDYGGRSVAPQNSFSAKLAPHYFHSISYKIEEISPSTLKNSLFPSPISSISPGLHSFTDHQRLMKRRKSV
T2 sequence (Q9NPC2 whole entry): as above
T2 sequence (O14649 whole entry): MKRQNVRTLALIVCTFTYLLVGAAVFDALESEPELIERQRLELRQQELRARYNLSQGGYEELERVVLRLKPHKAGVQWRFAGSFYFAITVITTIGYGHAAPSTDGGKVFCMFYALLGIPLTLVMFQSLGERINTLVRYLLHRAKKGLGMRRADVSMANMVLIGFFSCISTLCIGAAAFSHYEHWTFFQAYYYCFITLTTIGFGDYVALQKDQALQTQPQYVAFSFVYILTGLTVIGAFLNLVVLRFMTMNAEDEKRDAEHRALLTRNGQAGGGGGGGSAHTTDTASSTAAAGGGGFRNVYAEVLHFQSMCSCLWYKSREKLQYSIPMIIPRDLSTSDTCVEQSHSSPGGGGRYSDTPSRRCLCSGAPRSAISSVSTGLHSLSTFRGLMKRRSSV

One may read the EC50 as the concentration giving half of the maximal effect. The low end stands for higher potency in that assay, the high end for lower potency in that assay. Consider `Cc1ccc(SCc2cc(O)nc(N=C(N)Nc3cccc4ccccc34)n2)cc1` [CHET3-1], for which, on TASK-3 (hTASK-3) [1], the EC50 was found to be 500 ± 100 nM. Regarding `Cc1ccc(SCc2cc(O)nc(N=C(N)Nc3ccc(C(C)(C)C)cc3)n2)cc1` [CHET3-2], the “whole-cell patch clamp, HEK-293T” value on TASK-3 (hTASK-3) [2] was “while CHET3-2 was inactive (Fig. 4B)”. Regarding `Cc1ccc(SCc2cc(O)nc(N=C(N)Nc3ccc4c(c3)OCCO4)n2)cc1` [CHET3], the EC50 in experiment [3] worked out at 2500 ± 200 nM; at TASK-3 (hTASK-3) [1], 1400 ± 200 nM.

In general, inhibition refers to the percentage by which the read-out fell short of the control. Take `CCCC(=O)C1CCN(c2ncnc3c2CN(C(=O)c2ccc(-c4ccccc4)cc2)CC3)CC1` [PK-THPP]: the inhibition at 0.5 µM in experiment [4] was 90 ± 2%; at TASK-3 (hTASK-3) [5], 86 ± 3%.

Source of the values: doi:10.1101/657387v2 (biorxiv, 2019).
